Measurements reported in US5414001A, “Antineoplastic pyrrolo[4,3,2-de]quinolin-8(1H)-ones” (American Cyanamid Company, priority 1993, dated 1995).
Structures can show the parent of a compound that is named as a salt. Where two headings read alike, the source gives them in different places.

How the values were obtained:
[1] = tested on: DDP (Cisplatin resistant ovarian carcinoma cell line) / S (A2780); assay: SRB cytotoxicity ratio DDP/S (cisplatin resistance); format: cell-based, human; settings: 2880 min
[2] = tested on: panel of >20 human tumor cell lines; assay: In vitro tumor panel evaluation, Sulforhodamine B (SRB) cytotoxicity assay; format: cell-based; settings: for IC50: Homo sapiens
HCT15 / SKBR3 = assay: SRB cytotoxicity ratio HCT15/SKBR3 (topoisomerase resistance); format: cell-based, human; settings: 2880 min
CaCo2 / CX1 = settings: human, Caco-2, 48 h
Protocol: The cytotoxic activity of the pyrrolo[4,3,2-de]quinolin-8(1H)-ones against a panel of >20 human tumor cell lines is determined using the Sulforhodamine B protein dye-binding colorimetric cytotoxicity assay (SRB) described by Skehan et al. (Journal National Cancer Institute 82:1107-1112, 1990), as modified by Monks et al., (Journal National Cancer Institute 83: 757-766, 1991). […] Positive controls (i.e., etoposide) are included in every experiment. Treatments are for 48 hours, after which cells are fixed in 10% trichloroacetic acid (10% final concentration), washed five times with deionized water and stained with SRB solution (0.4% in glacial acetic acid). Protein-bound stain is solubilized with 0.1 ml tris buffer and the adsorbance values are recorded with a microplate reader. Duplicate plates of cells are fixed with trichloroacetic acid at the time of drug addition to establish To values, as described by Monks et al. (JNCl, 83: 757-766, 1991). The effect of drug treatments over the five-long range of concentrations is calculated using the formula, T--To/C--To, to determine the IC50 values.
3) The ratio values for DDP/S; CaCo2/CX1; MIP/SW620, and; HCT15/SKBR3 refer to the IC50 value for resistant cell lines included in the tumor cell panel, divided by the IC50 value for corresponding drug sensitive cell lines. For example, DDP is a Cisplatin resistant ovarian carcinoma cell line, and S is the corresponding parent drug sensitive ovarian carcinoma cell line (A2780). […] CaCo2 is a slow growing non P-glycoprotein multidrug resistant colon carcinoma cell line. MIP is a colon carcinoma cell line that expresses P-glycoprotein and is multidrug resistant; SW620 is a drug sensitive colon carcinoma cell line. HCT15 is a colon carcinoma cell line that is resistant to topoisomerase inhibitors and SKBR3 is a breast carcinoma that is very sensitive to topoisomerase inhibitors.

MIP / SW620 = assay: SRB cytotoxicity ratio MIP/SW620 (MDR, P-glycoprotein resistance); format: cell-based, human; settings: 2880 min
[3] = IC50 resistant / IC50 sensitive cell line, cisplatin resistance
[4] = Mean IC50 value for all 20 cell lines, 48 hours
[5] = IC50 resistant / IC50 sensitive cell line, topoisomerase resistance
[6] = human, ddp/s ovarian carcinoma cells
[7] = IC50 resistant / IC50 sensitive cell line, MDR (pglycoprotein) resistance
[8] = Mean IC50 value for all 20 cell lines, 48 hours, read-out: AVG IC50
[9] = least sensitive cell line, 48 hours, read-out: MAX IC50
[10] = most sensitive cell line, 48 hours, read-out: MIN IC50

Row | Compound | CaCO2/CX1 IC50 ratio (CaCo2 / CX1) | DDP/S IC50 ratio [1, 3] | AVG IC50 [2, 4] [µg/mL] | HCT15/SKBR3 IC50 ratio (HCT15 / SKBR3; [5]) | DDP/S IC50 ratio [1, 6] | IC50 ([2]; 48 h, read-out: AVG IC50) [µg/mL] | IC50 ([2]; 48 h, read-out: MAX IC50) [µg/mL] | IC50 ([2]; 48 h, read-out: MIN IC50) [µg/mL] | HCT15/SKBR3 IC50 ratio (HCT15 / SKBR3; human, hct15/skbr3 cells) | MIP/SW620 IC50 ratio (MIP / SW620; [7]) | IC50 [2, 8] [µg/mL] | IC50 [2, 9] [µg/mL] | IC50 [2, 10] [µg/mL] | MIP/SW620 IC50 ratio (MIP / SW620; human, mip/sw620 cells) | MAX IC50 ([2]; least sensitive cell line, 48 hours) [µg/mL] | MIN IC50 ([2]; most sensitive cell line, 48 hours) [µg/mL]
1 | 7-(Cyclohexylamino)-1,3,4,8-tetrahydro-5-methyl-8-oxo-pyrrolo[4,3,2-de]quinolinium trifluoroacetate [Example 41] | 8.3 | 1.8 | 6.5 | 737.0 | – | – | – | – | – | – | – | – | – | – | – | –
2 | CC(CCC(C)NC1=CC2=[N+](C)CCc3c[nH]c(c32)C1=O)NC1=CC2=[N+](C)CCc3c[nH]c(c32)C1=O (racemic) [Example 57, 7,7'-(1,4-Dimethyl-1,4-butanediyldiimino)-bis[1,3,4,8-tetrahydro-5-methyl-8-oxo-pyrrolo[4,3,2-de]quinolinium trifluoroacetate] | 100.8 | – | – | – | 1.8 | 13 | 50 | 0.43 | 32.1 | – | – | – | – | – | – | –
3 | O=C1CC2SC3CC2(C=C1Br)C1=C(N3)C(=O)c2[nH]cc3c2C1=NCC3 (stereo not drawn) [Example 9, discorhabdin A] | – | – | – | – | 1.4 | – | – | – | – | – | – | – | – | – | – | –
4 | Cn1cc2c3c1C(=O)C(N)=C(Br)C3=NCC2 [Example 14, 7-Amino-6-bromo-3,4-dihydro-1-methyl-8-oxo-pyrrolo [4,3,2-de]quinolin-8 (1H) -one trifluoroacetate] | 0.8 | – | – | – | 1.2 | – | – | – | 2.1 | – | 2.3 | 3.54 | 0.84 | 1.4 | – | –
5 | Cn1cc2c3c1C(=O)C(N)=CC3=[N+](C)CC2 [Example 29, 7-Amino-1,3,4,8-tetrahydro-1,5-dimethyl-8-oxo-pyrrolo[4,3,2-de] quinolinium trifluoroacetate] | 2.9 | – | – | – | – | 2.6 | 5.7 | 1.03 | 1.8 | – | – | – | – | 1.8 | – | –
6 | Cn1cc2c3c1C(=O)C(N)=CC3=[N+](Cc1ccccc1)CC2 [Example 32, 7-Amino-1,3,4,8-tetrahydro-1-methyl-8-oxo-5-(phenylmethyl)-pyrrolo[4,3,2-de]quinolinium trifluoroacetate] | 1.8 | – | – | – | – | 2.1 | 10 | 0.37 | 3.5 | – | – | – | – | 0.9 | – | –
7 | C[N+]1=C2C=C(NCc3ccc(C(=O)O)cc3)C(=O)c3[nH]cc(c32)CC1 [Example 45, 7-[[(4-Carboxylphenyl)methyl]amino]-1,3,4,8-tetrahydro-5-methyl-8-oxo-pyrrolo[4,3,2-de]quinolinium trifluoroacetate] | – | 1.2 | – | 1.6 | – | – | – | – | – | 1.2 | 33 | 50 | 8.99 | – | – | –
8 | Cn1cc2c3c1C(=O)C(=O)C=C3NCC2.O=C(O)C(F)(F)F [Example 51, 1,3,4,5-Tetrahydro-1-methyl-pyrrolo[4,3,2-de]quinoline-7,8-dione trifluoroacetate] | – | – | – | – | – | – | – | – | – | – | 48 | 50 | 35.6 | – | – | –

Second part, led by results:

Row | CaCO2/CX1 IC50 ratio (CaCo2 / CX1) | Compound | DDP/S IC50 ratio [1, 3] | AVG IC50 [2, 4] [µg/mL] | HCT15/SKBR3 IC50 ratio (HCT15 / SKBR3; [5]) | DDP/S IC50 ratio [1, 6] | IC50 ([2]; 48 h, read-out: AVG IC50) [µg/mL] | IC50 ([2]; 48 h, read-out: MAX IC50) [µg/mL] | IC50 ([2]; 48 h, read-out: MIN IC50) [µg/mL] | HCT15/SKBR3 IC50 ratio (HCT15 / SKBR3; human, hct15/skbr3 cells) | MIP/SW620 IC50 ratio (MIP / SW620; [7]) | IC50 [2, 8] [µg/mL] | IC50 [2, 9] [µg/mL] | IC50 [2, 10] [µg/mL] | MIP/SW620 IC50 ratio (MIP / SW620; human, mip/sw620 cells) | MAX IC50 ([2]; least sensitive cell line, 48 hours) [µg/mL] | MIN IC50 ([2]; most sensitive cell line, 48 hours) [µg/mL]
9 | 0.25 | C[N+]1=C2C(Cl)=C(N)C(=O)c3[nH]cc(c32)CC1 [Example 10, 7-Amino-6-chloro-1,3,4,8-tetrahydro-5-methyl-8-oxo-pyrrolo[4,3,2-de]quinolinium trifluoroacetate] | – | – | 1.5 | – | – | – | – | – | 0.7 | 5.1 | 10 | 1.29 | – | – | –
10 | 0.7 | C[N+]1=C2C(Br)=C(N)C(=O)c3[nH]c(Br)c(c32)CC1 [Example 13, 7-Amino-2,6-dibromo-1,3,4,8-tetrahydro-5-methyl-8-oxo-pyrrolo[4,3,2-de]quinolinium trifluoroacetate] | 1.1 | – | 1.7 | – | – | – | – | – | 0.9 | 2.4 | 7.71 | 0.4 | – | – | –
11 | 0.8 | C[N+]1=C2C=C(N)C(=O)c3c2c(cn3Cc2cccc(Cl)c2)CC1 [Example 21, 7-Amino-1-[(3-chlorophenyl]methyl]-1,3,4,8-tetrahydro-5-methyl-8-oxo-pyrrolo[4,3,2-de]quinolinium trifluoroacetate] | 1.5 | – | 7.1 | – | – | – | – | – | 7.0 | 1.4 | 4.47 | 0.28 | – | – | –
12 | 1.0 | COc1cccc(Cn2cc3c4c2C(=O)C(N)=CC4=[N+](C)CC3)c1 [Example 23, 7-Amino-1,3,4,8-tetrahydro-1-[(3-methoxyphenyl)methyl]-5-methyl-8-oxo-pyrrolo[4,3,2-de]quinolinium trifluoroacetate] | 1.2 | – | 3.8 | – | – | – | – | – | 8.6 | 2.1 | 4.2 | 0.45 | – | – | –
13 | 7.3 | COC(=O)CCNC1=CC2=[N+](C)CCc3cn(Cc4ccccc4)c(c32)C1=O [Example 25, 1,3,4,8-tetrahydro-7-[(3-methoxy-3-oxopropyl)amino]-5-methyl-8-oxo-1-(phenylmethyl)pyrrolo[4,3,2-de]quinolinium trifluoroacetate] | 6.1 | – | 23.5 | – | – | – | – | – | – | 13 | 50 | 1.32 | – | – | –
14 | 15.1 | COC(=O)CCNC1=CC2=[N+](C)CCc3cn(CCC(=O)OC)c(c32)C1=O [Example 27, 1,3,4,8-Tetrahydro-1-(3-methoxy-3-oxopropyl)-7-[7-[(3-methoxy-3-oxopropyl)amino]-5-methyl-8-oxo-pyrrolo[4,3,2-de]quinolinium trifluoroacetate] | 5.1 | – | 288.0 | – | – | – | – | – | – | 15 | 50 | 0.17 | – | – | –
15 | 8.3 | CC(C)NC1=CC2=[N+](C)CCc3c[nH]c(c32)C1=O.O=C([O-])C(F)(F)F [Example 40, 1,3,4,8-Tetrahydro-5-methyl-7-[(2-methylethyl)amino]-8-oxo-pyrrolo[4,3,2-de]quinolinium trifluoroacetate] | 1.3 | 5.8 | 102.0 | – | – | – | – | – | – | – | – | – | – | 50 | 0.25
16 | 38.0 | COc1ccc(CNC2=CC3=[N+](C)CCc4c[nH]c(c43)C2=O)cc1 [Example 48, 1,3,4,8-Tetrahydro-7-[[(4-methoxyphenyl)methyl]amino]-5-methyl-8-oxo-pyrrolo[4,3,2-de]quinolinium trifluoroacetate] | 11.0 | – | 2090.0 | – | – | – | – | – | – | 7.7 | 50 | 0.02 | – | – | –
17 | 4.2 | Cc1[nH]c2c(c1C)C1=[N+](C)CCc3c[nH]c(c31)C2=O [Example 54, 3,5,6,7-Tetrahydro-1,8,9-trimethyl-6-oxo-2M-dipyrrolo[4,3,2-de:2',3'-h]quinolinium trifluoroacetate] | 1.2 | – | 3.9 | – | – | – | – | – | – | 18 | 50 | 2.26 | – | – | –
